Source: US20050250837A1, “Use of C-Raf inhibitors for the treatment of neurodegenerative diseases” (priority 2002, published 2005)

Legend:
ERK 1/2 = ERK 1/2 phosphorylation in neuronal cultures, Western blot; format: cell-based, rat; conditions: LK plus GW5074, 1 or 3 hours
Description: Activation of all three Raf proteins results in activation of MEK and ERK.
Survival of cerebellar granule neurons can be maintained by BDNF and this effect of BDNF is mediated by the Raf-MEK-ERK signaling pathway (Bonni et al., 1999). The Raf-MEK-ERK pathway is also involved in promoting survival of other neuronal and normeuronal cell types. A potent blocker of the Raf-MEK-ERK pathway is PD98059 (Alessi et al., 1995). In paradigms in which the Raf-MEK-ERK pathway mediates neuronal survival, such as BDNF-treated cerebellar granule neurons, the presence of […] blocks survival (Bonni et al., 1999). […] Lysates from the cultures were subjected to Western blotting using an antibody specific for phospho-ERK.
(§1) For whole-cell lysates, the culture medium was discarded, the neurons washed twice with ice-cold phosphate-buffered saline (PBS), and lysed in lysis buffer (1% Triton, 20 mM Tris-HCl (pH 7.5), 150 mM NaCl, 1 mM Na2EDTA, 1 mM EGTA, 2.5 mM sodium pyrophosphate, 1 mM beta-glycerophosphate, 1 mM Na3VO4, 1 μg/ml leupeptin and 1× protease inhibitor mixture). Protein concentrations were measured using a Bradford protein assay kit (Bio-Rad), and equivalent amounts of protein were mixed with 6×SDS-PAGE sample buffer. […] After staining with Ponceau S to verify uniformity of protein loads/transfer, the membranes were analyzed for immunoreactivity. […]

c-jun = c-jun phosphorylation (Ser63) and total c-jun, Western blot; format: cell-based, rat; conditions: LK + 1 uM GW5074, 1 and 3 hours
Procedure: In granule neurons, phosphorylation of c-jun occurs within 1 hour of LK treatment (Ham et al., 1995; Watson et al. 1998). […] The same blot was reprobed with an antibody against total c-jun (lower panel).
For whole-cell lysates, the culture medium was discarded, the neurons washed twice with ice-cold phosphate-buffered saline (PBS), and lysed in lysis buffer (1% Triton, 20 mM Tris-HCl (pH 7.5), 150 mM NaCl, 1 mM Na2EDTA, 1 mM EGTA, 2.5 mM sodium pyrophosphate, 1 mM beta-glycerophosphate, 1 mM Na3VO4, 1 μg/ml leupeptin and 1× protease inhibitor mixture). Protein concentrations were measured using a Bradford protein assay kit (Bio-Rad), and equivalent amounts of protein were mixed with 6×SDS-PAGE sample buffer. Following heating at 95° C. for 5 min, proteins were subjected to SDS-polyacrylamide gel electrophoresis and transferred electrophoretically to polyvinylidene difluoride membrane (PVDF; Bio Rad). After staining with Ponceau S to verify uniformity of protein loads/transfer, the membranes were analyzed for immunoreactivity. Incubation with primary antibodies was performed overnight at 4° C. and with secondary antibodies for 1 h at room temperature. Immunoreactivity was developed by enhanced chemiluminescence (ECL; Amersham) and visualized by autoradiography. All antibodies were from Cell Signaling.

GSK3β = GSK3β phosphorylation in neuronal cultures, Western blot; format: cell-based, rat; conditions: LK + 1 uM GW5074
cdk1 = cdk1 (Homo sapiens, UniProt P06493); conditions: Lackey et al., 2000; cited from earlier work
Akt = Akt phosphorylation (Ser473) in neuronal cultures, Western blot; format: cell-based, rat
Procedure: The best-studied anti-apoptotic pathway in neurons is the PI-3 kinase—Akt signaling pathway (D'Mello et al., 1997; Dudek et al., 1997; Miller et al, 1997a). IGF-1, a potent survival-promotic factor for granule neurons mediates its effect by activating the PI-3 kinase-Akt pathway (Datta et al., 1997; Dudek et al., 1997; D'Mello et al., 1998). […] Switching cerebellar granule neurons from serum-containing HK medium in which they are cultured and allowed to mature, to serum-free LK or HK medium, causes a rapid downregulation of Akt phosphorylation and activity, which can be prevented by IGF-1 (Kumari et al., 2001). […] The same blot was reprobed with an antibody against phospho-Gskβ. Also loaded on the gel were lysates from untreated cultures (maintained in medium containing serum and high K+) and a culture treated for 1 hour with 25 ng/ml IGF-1. […] GSK3βis a proapoptotic molecule that is activated during apoptosis in many neuronal and normeuronal systems. Under survival promoting conditions GSK3β is kept inactivated by phosphorylation, a modification that can be induced by Akt. […] Another proapoptotic molecule that is phosphorylated and inactivated by Akt is the transcription factor, Forkhead (Linseman et al., 2002). […] Switching of neurons to LK medium leads to a rapid downregulation of Akt activity within 2 hours.
as §1

[1] = tested on: cerebellar granule neurons; assay: Apoptosis of neurons infected with adenoviral dominant-negative Akt; format: cell-based, rat; conditions: LK + 1 uM GW5074 or 25 ng/ml IGF-1
Description: Five day old neuronal cultures were infected with adenoviral vectors expressing either GFP or hemagluttinin (HA)-tagged dominant-negative Akt. […] Infected neurons were detected by positive staining for GFP or HA by immunocytochemistry. The proportion of apoptotic cells (condensed or fragmented nuclei) as a percentage of total infected neurons was quantified following DAPI-staining.
DnAkt and control recombinant adenovirus expressing green fluorescent protein (Ad-GFP) are propagated in HEK293T cells and purified by cesium chloride density gradient centrifugation. After quantification of titer, virus at an MOI of 10 are used to infect granule neuron cultures 5 days after plating by direct addition to the medium. Treatments are performed 24 hours after addition of virus.

VEGFR2 = VEGFR2 (Homo sapiens, UniProt P35968); conditions: Lackey et al., 2000; cited from earlier work
NF-κB = NF-κB DNA-binding activity, gel mobility shift assay; format: cell-based, rat; conditions: LK + 1 uM GW5074, 6 hours
Procedure: Another molecule known to be important for neuronal survival is NF-κB. Although the precise mechanism has not been elucidated, the Raf is known to activate NF-κB in normeuronal cells via a MEK-ERK-independent mechanism (Foo and Nolan, 1999; Pearson et al., 2000). […] Viability was quantified 24 hours later and expressed as percentage of viability in HK.
One potential mediator of MEK-ERK-independent B-Raf signaling is NF-κB.
Nuclei from neuronal cultures were resuspended in buffer containing 20 mM HEPES pH 7.6, 50 mM KCl, 300 mM NaCl, 0.1 mM EDTA, 1 mM DTT, 0.1 mM PMSF, 10% glycerol, 1× protease inhibitor cocktail and extracted on ice for 30 min, followed by micro-centrifugation at 14,000 rpm for 10 min. The supernatants were collected as nuclear extracts. Concentrations of these nuclear extracts were determined by the Bradford method using reagents from Bio-Rad. Ten μg of each nuclear extract sample was incubated with 0.1 pmol of ^32P-labeled double-stranded KB binding oligonucleotide (5′-[…]-3′) identified as SEQ ID NO:1, or SP1 binding oligonucleotide (5′-[…]-3′) identified as SEQ ID NO:2, in buffer containing 1 μg of poly (d1-dC), 1 μg of BSA, 10 mM HEPES pH7.6, 0.5 mM DTT, 0.1 mM EDTA, 60 mM KCl, 0.2 mM PMSF, 5 mM MgCl2, and 12% glycerol at room temperature for 30 min. Samples were analyzed by 5% native polyacrylamide gel electrophoresis (PAGE) followed by autoradiography.

cdk2 = cdk2 (Homo sapiens, UniProt P24941); conditions: Lackey et al., 2000; cited from earlier work

Chain of cdk1 (P06493 whole entry, species assumed): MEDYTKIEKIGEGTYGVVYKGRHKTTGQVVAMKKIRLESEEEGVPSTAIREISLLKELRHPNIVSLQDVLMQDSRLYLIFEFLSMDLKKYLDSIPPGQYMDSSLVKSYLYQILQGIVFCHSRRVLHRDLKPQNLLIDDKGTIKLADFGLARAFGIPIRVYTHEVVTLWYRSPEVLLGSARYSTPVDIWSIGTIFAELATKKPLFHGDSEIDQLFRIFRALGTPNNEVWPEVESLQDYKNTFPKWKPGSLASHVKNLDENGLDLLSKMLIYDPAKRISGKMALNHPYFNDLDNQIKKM
Chain of cdk1 (P14635 whole entry partner, species assumed): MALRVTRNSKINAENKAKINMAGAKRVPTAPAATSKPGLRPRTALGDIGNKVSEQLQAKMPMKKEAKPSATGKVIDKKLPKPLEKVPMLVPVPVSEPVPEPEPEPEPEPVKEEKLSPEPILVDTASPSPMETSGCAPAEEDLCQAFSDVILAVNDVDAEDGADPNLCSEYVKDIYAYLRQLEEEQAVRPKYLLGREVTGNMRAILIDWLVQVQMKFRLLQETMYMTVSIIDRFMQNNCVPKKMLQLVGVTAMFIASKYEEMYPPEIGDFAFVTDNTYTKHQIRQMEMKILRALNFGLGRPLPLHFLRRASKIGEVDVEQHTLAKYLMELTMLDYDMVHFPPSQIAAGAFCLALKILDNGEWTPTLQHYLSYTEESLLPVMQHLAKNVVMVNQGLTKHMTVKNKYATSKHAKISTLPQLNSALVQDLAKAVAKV
Chain of VEGFR2 (P35968 20-1356, species assumed): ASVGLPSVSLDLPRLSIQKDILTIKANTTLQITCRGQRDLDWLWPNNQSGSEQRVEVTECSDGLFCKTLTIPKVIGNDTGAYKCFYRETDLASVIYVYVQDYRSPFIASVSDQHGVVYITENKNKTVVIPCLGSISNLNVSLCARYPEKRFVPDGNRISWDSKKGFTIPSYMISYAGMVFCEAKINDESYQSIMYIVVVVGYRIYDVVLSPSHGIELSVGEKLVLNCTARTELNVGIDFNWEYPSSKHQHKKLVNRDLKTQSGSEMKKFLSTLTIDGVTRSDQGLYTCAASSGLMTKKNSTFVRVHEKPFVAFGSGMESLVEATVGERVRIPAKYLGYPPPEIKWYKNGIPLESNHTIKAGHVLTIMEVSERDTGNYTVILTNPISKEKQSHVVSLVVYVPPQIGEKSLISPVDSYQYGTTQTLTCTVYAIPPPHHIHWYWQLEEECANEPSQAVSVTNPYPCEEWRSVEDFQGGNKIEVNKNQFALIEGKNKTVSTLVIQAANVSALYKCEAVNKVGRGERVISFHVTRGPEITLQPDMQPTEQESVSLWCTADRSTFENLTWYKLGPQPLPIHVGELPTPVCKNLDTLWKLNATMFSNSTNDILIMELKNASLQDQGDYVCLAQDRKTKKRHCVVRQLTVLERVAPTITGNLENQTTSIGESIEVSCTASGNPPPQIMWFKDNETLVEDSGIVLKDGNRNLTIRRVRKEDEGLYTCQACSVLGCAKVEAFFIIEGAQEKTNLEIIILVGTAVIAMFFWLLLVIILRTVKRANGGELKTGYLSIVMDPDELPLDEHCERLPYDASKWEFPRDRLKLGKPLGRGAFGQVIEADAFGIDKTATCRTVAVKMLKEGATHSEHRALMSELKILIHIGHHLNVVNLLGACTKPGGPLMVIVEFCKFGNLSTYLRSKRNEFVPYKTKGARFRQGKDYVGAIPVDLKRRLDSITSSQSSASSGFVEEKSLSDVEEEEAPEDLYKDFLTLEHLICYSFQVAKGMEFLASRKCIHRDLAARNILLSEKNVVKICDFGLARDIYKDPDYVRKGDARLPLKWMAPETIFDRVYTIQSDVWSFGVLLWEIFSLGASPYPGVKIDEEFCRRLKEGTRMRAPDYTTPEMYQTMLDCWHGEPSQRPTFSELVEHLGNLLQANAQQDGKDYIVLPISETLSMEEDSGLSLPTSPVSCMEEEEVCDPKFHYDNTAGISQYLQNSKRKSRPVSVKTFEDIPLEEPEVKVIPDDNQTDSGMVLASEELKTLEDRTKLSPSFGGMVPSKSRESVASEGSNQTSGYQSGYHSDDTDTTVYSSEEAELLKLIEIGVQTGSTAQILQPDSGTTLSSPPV

With `O=C1Nc2ccc(I)cc2C1=Cc1cc(Br)c(O)c(Br)c1` [GW5074, 5-Iodo-3-[(3,5-dibromo-4-hydroxyphenyl)methylene]-2-indolinone] the “phosphorylation of ERK 1/2” value (ERK 1/2) was “increase in the phosphorylation of ERK 1/2”, the “LK-induced c-jun phosphorylation and synthesis” value (c-jun) was “prevents LK-induced c-jun phosphorylation and its increased synthesis” and the “activation of GSK3β after switch to LK” value (GSK3β) was “prevents the activation of GSK3”. For the same molecule, the “effect on activity of cdk1” value (cdk1) was “no effect”, the “Akt phosphorylation after LK treatment” value (Akt; LK + 1 uM GW5074, 1 and 3 hours) was “delays the downregulation of Akt phosphorylation” and the “de novo Akt activation after downregulation in LK” value (Akt; added to cultures already switched to LK) was “does not lead to Akt activation”. For the same molecule, the “effect of dominant-negative Akt on survival promotion” value [1] was “no effect on the ability of GW5074 to maintain neuronal survival”, the “effect on activity of VEGFR2” value (VEGFR2) was “no effect” and the “NF-κB binding activity in LK” value (NF-κB) was “downregulation of NF-κB binding activity is prevented”. The “effect on activity of cdk2” value (cdk2) was “no effect”.
